From paper PMC6501426 (Clinical Epigenetics, 2019) come the findings set out here.

The test system of experiment [1] is methylated CMV promoter-driven luciferase reporter in KG-1 cells. Nature of the experiment: CMV-luc assay in KG-1 cells. The class given is cell-based, human. The conditions noted are these: KG-1 CMV-luc. As for the experimental part:
The assay was carried out as described by Rilova et al.. The KG-1 cell line was stably transfected with the luciferase firefly (Luc^+ from pGL3 by Promega, Madison, WI, USA) reporter gene under the control of a methylated CMV promoter (from pEGFP-N1 by Clontech) and selected for the maintenance of the methylation of CMV and luciferase expression silencing (KG-1 CMV-luc). The stably integrated KG-1 CMV-luc cells are cultivated in RPMI-1640 medium (Lonza, Strasbourg, France), supplemented with 10% FCS (Lonza, Strasbourg, France) and 0.5 mg/mL of geneticin (Sigma-Aldrich, Saint-Quentin Fallavier, France), under 5% CO2, at 37 °C and seeded at 20,000 cells per well in 96-well plates. After 5 or 24 h of incubation in the presence of compounds or the solvent DMSO, the induction of the promoter is measured by quantification of luciferase with the Brite-lite assay system (PerkinElmer, Villebon-sur-Yvette, France) according to the manufacturer’s protocol. The luminescence is measured on an EnVision™ Multilabel Plate Reader (PerkinElmer, Villebon-sur-Yvette, France), and the data are expressed as fold induction compared to DMSO control. The mean of 2–4 experiments and its standard error are reported.
(§1) Afterwards, MC3353 was tested in KG-1 leukemia cells for its ability to reactivate gene expression in a stably integrated luciferase reporter construction under the control of a CMV promoter inhibited by DNA methylation (CMV-luc assay). After 5 or 24 h of incubation in the presence of drugs at the indicated concentrations, the luciferase signal was measured and normalized to the value of the non-treated cells (Table 2). Since the CMV-luc assay is highly compromised when the tested compounds induce cell death, the cytotoxicity of MC3353 against KG-1 cells at 5 and 24 h was determined in parallel. MC3353 was highly toxic for KG-1 cells after 24 h of treatment starting from a concentration of 1 μM (Additional file 1: Table S1 and indicated in stars in Table 2).

Experiment [2] concerns KG-1 cells. Put plainly: Antiproliferative activity in KG-1 cells (Table S1). The class given is cell-based. Conditions: Homo sapiens, read-out: % inhibition of proliferation, KG-1 cells. The procedure:
To determine the antiproliferative activity of MC3353 in KG-1 cells, the cells were seeded at day 0 in a 96-well plate and treated with test compound solutions at a dose range spanning from 3.2 × 10^−9 to 1 × 10^−5 M at days 1, 2, and 3. On day 4, cell viability was assessed using the ATPLite kit (PerkinElmer, Villebon-sur-Yvette, France).
as §1

For experiment [3], the system named is Saos-2 cells. Nature of the experiment: Saos-2 matrix mineralization, Alizarin red staining. The conditions noted are these: 7–21 days, differentiation medium. In kind it is cell-based, human. As for the experimental part:
Four days after seeding, Saos-2 cells were exposed to specific osteogenic medium (IMDM supplemented with 2% FBS, 5 mM β-glycerophosphate, and 50 μg/mL ascorbic acid, Sigma-Aldrich, Milan, Italy) without (control) or with MC3353 (0.5–1 μM) or DAC (0.1–0.5 μM) and maintained in differentiating conditions for up to 21 days. The medium was renewed every 4 days, and the cells were harvested at various time points to collect total RNA and verify bone mineralization. Specific osteoblastic markers were evaluated by quantitative real-time PCR (RT-qPCR) as previously described. The primers or assays (Applied Biosystems, Foster City, CA, USA) used are as follows: GAPDH (forward: 5′-[…]-3′, reverse: 5′-[…]-3′ and probe: 5′-[…]-3′), OCN (forward: 5′-[…]-3′, reverse: 5′-[…]-3′), ALP (Hs01029144_m1), and COL1A2 (Hs01028970_m1). Amplification reactions were performed using a ViiA7™ Real-Time PCR System (Life Technologies, Carlsbad, CA, USA). To visualize bone mineralization (osteoblastic differentiation) after 7–21 days of MC3353 or DAC treatment, the plates were stained with 40 mM Alizarin red stain (ARS, Sigma-Aldrich, Milan, Italy). ARS staining was visualized with an ECLIPSE 90i microscope (Nikon, Minato, Tokyo, Japan) equipped with Plan fluor 10× NA 0.3. […]

For experiment [4], the system named is RPMI1788 (normal B lymphocytes). Nature of the experiment: Cell viability, trypan blue exclusion. The conditions noted are these: Homo sapiens, RPMI-1788; 48 h of treatment; normal cells; read-out: IC50 ± SD, cell viability, RPMI1788. The class given is cell-based. As for the experimental part: U-937 (acute myeloid leukemia), RAJI (Burkitt’s lymphoma), PC-3 (prostate cancer), and MDA-MB-231 (breast cancer) cell lines were obtained from the Deutsche Sammlung für Mikroorganismen and Zellkulturen (DSZM, Braunschweig, Germany) and were cultured in RPMI 1640 (Lonza, Verviers, Belgium) complemented with 10% FBS (Lonza, Verviers, Belgium) and 1% antibiotic-antimycotic (Lonza). RPMI1788 (normal B lymphocytes) and KG-1 (acute myeloid leukemia) cell lines were obtained from the American Type Culture Collection (ATCC) and were maintained in RPMI 1640 complemented with 20% FBS and IMDM complemented with 10% FBS, respectively. Cell lines were treated with compounds at the indicated concentrations in the exponential growth phase.
Proliferation and viability of U-937, KG-1, RAJI, PC-3, MDA-MB-231, RPMI1788, PBMCs, and PHA_PBMCs were assessed by trypan blue exclusion assays at the indicated time points. Nuclear morphology changes associated with apoptosis and necrosis were evaluated by fluorescence microscopy after Hoechst and propidium iodide (PI) staining as previously described.
IC50 values of compounds against cellular viability were determined by using nonlinear regression fitting curves with GraphPad Prism 8 or CalcuSyn software The t test used for statistical analyses was performed with GraphPad Prism 8. […]

Read-outs that look alike come from different tables or passages of the source.

On to `O=C(Nc1ccc(NC(=O)c2ccc(Nc3ccnc4ccccc34)cc2)cc1)OCc1ccccc1` [MC3353, Benzyl (4-(4-(quinolin-4-ylamino)benzamido)phenyl)carbamate], for which the “Luciferase expression (fold ± SD)” value in experiment [1] (0.1 μM, 5 h) is listed as 1.0 ± 0.05 fold; in experiment [1] (0.1 μM, 24 h) it was 1.1 ± 0.1 fold; in experiment [1] (1 μM, 5 h), 5.8 ± 0.9 fold; in experiment [1] (1 μM, 24 h), 4.4 ± 3.5 fold; in experiment [1] (5 μM, 5 h), 6.7 ± 0.8 fold. Besides, the inhibition at 0.1 µM in experiment [2] (5h) amounted to 5.5%; in experiment [2] (24h), 2.9%. Besides, the results for the inhibition at 1 µM in experiment [2] (5h) and in experiment [2] (24h) were 17.7% and 98.7%, respectively. The figures for the inhibition at 5 µM in experiment [2] (5h) and in experiment [2] (24h) were 81.2% and 100%, respectively. The inhibition at 10 µM in experiment [2] (5h) is 96.8%; in experiment [2] (24h), 100%. Further, the “mineralized matrix production (ARS staining), Saos-2” value in experiment [3] is “augment mineralized matrix production”. In experiment [4], the IC50 turned out to be 2.4 ± 0.2 µM.

The term IC50 denotes the midpoint of a concentration-inhibition curve.
